Test system: Nrf2 (Keap1-NRF2 nuclear translocation)
Assay: U2OS translocation assay (PathHunter U2OS Keap1-NRF2 Nuclear Translocation Cell Line)
Format: cell-based
Settings: Homo sapiens, U2OS, 3 h, read-out: CELLULAR U2OS EC50 (nM), U2OS Keap1-NRF2 nuclear translocation cells, 3 h incubation, luminescence, normalized between 1% DMSO and 10 μM andrographolide
Method: EXAMPLE 84: U2OS—TRANSLOCATION ASSAY
U2OS cell have been stably transduced using MMLV-derived retroviral vector, to overexpress Nrf2-Enzyme Donor fusion protein, and Acceptor Enzyme in the nucleus (PathHunter® U2OS Keap1-NRF2 Nuclear Translocation Cell Line, Ref.93-0821C3, DiscoverX).
PathHunter U2OS cells were grown in Minimum Essential Medium (MEM) (Ref.30-2003, ATCC), 10% FBS (Ref.P30-193306, PanBiotech), 500 μg/ml Geneticine, 250 μg/ml hygromycine, 0.25 μg/ml puromycine (10131-027, 10687-010 and Ref.A1113802 respectively, Life Technologies).
The night before experiment, cells were harvested using Tryple Xpress (Ref.126905, Bibco) for 5 min at 37° C., resuspended in Opti-MEM™ (Ref.31985-047, Gibco), 1% FBS (Ref.P30-193306, PanBiotech) and then plated into 384 wells plates (Ref.6007680, Perkin Elmer) at the density of 7 500 cells/well in 20 μl. Cell are stored over night at 37° C., 5% CO2 until used. Compounds in 100% DMSO (0.315 μl/well) were resuspended in 20 μl MEM, 1% FBS, 3.4% DMSO. Compounds and andrographolide (10 μM final concentration; Ref.365645-500MG, Aldrich)) as positive control, were dispensed on cell, 5 μl /well, and then incubated for 3 h at 37° C. and 5% CO2. After incubation, Path hunter reagents were dispensed on cells (12 μl /well, Ref.93-0001, DiscoverX) and incubated for 60 min at room temperature in the dark.
Then, luminescence signal was measured using multimodal reader (Pherastar, BMG Labtech). Data were normalized between 1% DMSO (basal signal) and 10 μM andrographolide (positive signal) and analyzed using Activity Base software.

Going from `Cc1ccc2cc1CN1Cc3cc(ccc3OS1(=O)=O)OCCCn1nnc3c(C)c(ccc31)C2CC(=O)O` (racemic) [Example 2, [4,30-Dimethyl-26,26-dioxo-20,25-dioxa-26λ^6-thia-1,14,15,16-tetraazahexacyclo[19.5.3.1^3,70.1^9,130.0^12,160.0^24,28]hentriaconta-3(31),4,6,9(30),10,12,14,21,23,28-decaen-8-yl]acetic acid] to `Cc1ccc2cc1CN1Cc3cc(ccc3OS1(=O)=O)OCCn1nnc3c(C)c(ccc31)C2CC(=O)O` (stereo not drawn) [Example 77a, [4,29-Dimethyl-25,25-dioxo-19,24-dioxa-25λ^6-thia-1,14,15,16-tetraazahexacyclo[18.5.3.1^3,70.1^9,130.0^12,160.0^23,27]triaconta-3(30),4,6,9(29),10,12,14,20,22,27-decaen-8-yl]acetic acid], the EC50 rises from 830 nM to 1750 nM (2.1-fold). The first is the more potent here.

Going from `Cc1ccc2cc1CN1Cc3cc(ccc3OS1(=O)=O)OCCCCn1nnc3c(C)c(cc(Br)c31)[C@@H]2CC(=O)O` [Example 48, [(8R)-11-Bromo-4,31-dimethyl-27,27-dioxo-21,26-dioxa-27λ^6-thia-1,14,15,16-tetraazahexacyclo[20.5.3.1^3,70.1^9,130.0^12,160.0^25,29]dotriaconta-3(32),4,6,9(31),10,12,14,22,24,29-decaen-8-yl]acetic acid] to `Cc1ccc2cc1CN1Cc3cc(ccc3OS1(=O)=O)OCCSCCn1nnc3c(C)c(ccc31)C2CC(=O)O` (stereo not drawn) [Example 63b, [4,32-Dimethyl-28,28-dioxo-22,27-dioxa-19,28λ^6-dithia-1,14,15,16-tetraazahexacyclo[21.5.3.1^3,70.1^9,130.0^12,160.0^26,30]tritriaconta-3(33),4,6,9(32),10,12,14,23,25,30-decaen-8-yl]acetic acid], the EC50 rises from 198 nM to 1220 nM (6.2-fold).

Compared with `COc1ccc2cc1CN1Cc3cc(ccc3OS1(=O)=O)OCCOCCn1nnc3c(C)c(ccc31)C2CC(=O)O` (stereo not drawn) [Example 59b, [4-Methoxy-32-methyl-28,28-dioxo-19,22,27-trioxa-28λ^6-thia-1,14,15,16-tetraazahexacyclo[21.5.3.1^3,70.1^9,130.0^12,160.0^26,30]tritriaconta-3(33),4,6,9(32),10,12,14,23,25,30-decaen-8-yl]acetic acid], `Cc1ccc2cc1CN1Cc3cc(c(Cl)cc3OS1(=O)=O)OCCOCCn1nnc3c(C)c(ccc31)C2CC(=O)O` (stereo not drawn) [Example 75, [24-Chloro-4,32-dimethyl-28,28-dioxo-19,22,27-trioxa-28λ^6-thia-1,14,15,16-tetraazahexacyclo[21.5.3.1^3,70.1^9,130.0^12,160.0^26,30]tritriaconta-3(33),4,6,9(32),10,12,14,23,25,30-decaen-8-yl]acetic acid] is 30-fold lower in EC50: 1760 nM for the first, 59.6 nM for the second. The second is the more potent here.

First: Cc1ccc2cc1CN1Cc3cc(ccc3OS1(=O)=O)OCc1ccccc1CCn1nnc3c(C)c(ccc31)C2CC(=O)O (stereo not drawn) [Example 62b, [4,36-Dimethyl-32,32-dioxo-26,31-dioxa-32λ^6-thia-1,14,15,16-tetraazaheptacyclo[25.5.3.1^3,70.1^9,130.0^12,160.0^19,240.0^30,34]heptatriaconta-3(37),4,6,9(36),10,12,14,19,21,23,27,29,34-tridecaen-8-yl]acetic acid]
Second: Cc1ccc2cc1CN1Cc3cc(ccc3OS1(=O)=O)Oc1ccccc1NCCCn1nnc3c(C)c(ccc31)C2CC(=O)O (stereo not drawn) [Example 71b, [4,37-Dimethyl-33,33-dioxo-27,32-dioxa-33λ^6-thia-1,14,15,16,20-pentaazaheptacyclo[26.5.3.1^3,70.1^9,130.0^12,160.0^21,260.0^31,35]octatriaconta-3(38),4,6,9(37),10,12,14,21,23,25,28,30,35-tridecaen-8-yl]acetic acid]
The EC50 of the first is higher: greater than 3160 nM for the first, 570 nM for the second. The second is the more potent here.

Going from `Cc1c2ccc3c1nnn3CCCCOc1ccc3c(c1)CN([C@H](C)c1cc(ccc1Cl)[C@H]2CC(=O)O)S(=O)(=O)O3` [Example 64b, [(2R,8R)-4-chloro-2,31-dimethyl-27,27-dioxo-21,26-dioxa-27λ^6-thia-1,14,15,16-tetraazahexacyclo[20.5.3.1^3,70.1^9,130.0^12,160.0^25,29]dotriaconta-3(32),4,6,9(31),10,12,14,22,24,29-decaen-8-yl]acetic acid] to `Cc1ccc2cc1CN1Cc3cc(ccc3OS1(=O)=O)OCCCCn1nnc3c(C)c(ccc31)[C@@H]2CC(=O)Nc1cncnc1` [Example 79a, 2-[(8R)-4,31-Dimethyl-27,27-dioxo-21,26-dioxa-27λ^6-thia-1,14,15,16-tetraazahexacyclo[20.5.3.1^3,70.1^9,130.0^12,160.0^25,29]dotriaconta-3(32),4,6,9(31),10,12,14,22,24,29-decaen-8-yl]-N-(pyrimidin-5-yl)acetamide], the EC50 rises from 231 nM to 1120 nM (4.8-fold).

`Cc1ccc2cc1CN1Cc3cc(ccc3OS1(=O)=O)OCCC(c1ccc(C(F)(F)F)cc1)Cn1nnc3c(C)c(ccc31)C2CC(=O)O` (stereo not drawn) [Example 65, {4,31-Dimethyl-27,27-dioxo-18-[4-(trifluoromethyl)phenyl]-21,26-dioxa-27λ^6-thia-1,14,15,16-tetraazahexacyclo[20.5.3.1^3,70.1^9,130.0^12,160.0^25,29]dotriaconta-3(32),4,6,9(31),10,12,14,22,24,29-decaen-8-yl}acetic acid] and `Cc1ccc2cc1CN1Cc3cc(ccc3OS1(=O)=O)OCCCCn1nnc3c(C)c(ccc31)[C@H]2CC(=O)Nc1cccnc1` [Example 80a, 2-[(8S)-4,31-Dimethyl-27,27-dioxo-21,26-dioxa-27λ^6-thia-1,14,15,16-tetraazahexacyclo[20.5.3.1^3,70.1^9,130.0^12,160.0^25,29]dotriaconta-3(32),4,6,9(31),10,12,14,22,24,29-decaen-8-yl]-N-(pyridin-3-yl)acetamide] are within 1.5-fold of each other in EC50: 699 nM for the first, 596 nM for the second.

First: Cc1ccc2cc1CN1Cc3cc(ccc3OS1(=O)=O)OCCCCn1nnc3c(C)c(ccc31)[C@H]2CC(=O)Nc1cncnc1 [Example 79b, 2-[(8S)-4,31-dimethyl-27,27-dioxo-21,26-dioxa-27λ^6-thia-1,14,15,16-tetraazahexacyclo[20.5.3.1^3,70.1^9,130.0^12,160.0^25,29]dotriaconta-3(32),4,6,9(31),10,12,14,22,24,29-decaen-8-yl]-N-(pyrimidin-5-yl)acetamide]
Second: Cc1ccc2cc1CN1Cc3cc(ccc3OS1(=O)=O)OCCCCn1nnc3c(C)c(ccc31)[C@@H]2CC(=O)Nc1cccnc1 [Example 80b, 2-[(8R)-4,31-dimethyl-27,27-dioxo-21,26-dioxa-27λ^6-thia-1,14,15,16-tetraazahexacyclo[20.5.3.1^3,70.1^9,130.0^12,160.0^25,29]dotriaconta-3(32),4,6,9(31),10,12,14,22,24,29-decaen-8-yl]-N-(pyridin-3-yl)acetamide]
The EC50 of the first is 9.1-fold lower: 296 nM for the first, 2700 nM for the second.

Same assay, conditions: read-out: CELLULAR U2OS EC50; U2OS Keap1-NRF2 nuclear translocation cells, 3 h incubation, luminescence, normalized between 1% DMSO and 10 μM andrographolide

First: Cc1ccc2cc1CN1Cc3cc(ccc3OS1(=O)=O)OCCCCCn1nnc3c(C)c(ccc31)C2CC(=O)O (single isomer, unassigned) [Example 1a, [4,32-dimethyl-28,28-dioxo-22,27-dioxa-28λ^6-thia-1,14,15,16-tetraazahexacyclo[21.5.3.1^3,70.1^9,130.0^12,160.0^26,30]tritriaconta-3(33),4,6,9(32),10,12,14,23,25,30-decaen-8-yl]acetic acid]
Second: Cc1ccc2cc1CN1Cc3cc(ccc3OS1(=O)=O)OCCn1nnc3c(C)c(ccc31)C2CC(=O)O (stereo not drawn) [Example 77b, [4,29-Dimethyl-25,25-dioxo-19,24-dioxa-25λ^6-thia-1,14,15,16-tetraazahexacyclo[18.5.3.1^3,70.1^9,130.0^12,160.0^23,27]triaconta-3(30),4,6,9(29),10,12,14,20,22,27-decaen-8-yl]acetic acid]
The EC50 of the first is lower: 10.1 nM for the first, greater than 3160 nM for the second.

Target: T1, Keap1 (A321-C624) (h) (Homo sapiens, UniProt Q14145)
T1 construct: His-Thromb-KEAP1(A321-C624) acquired from Novalix (batch PU-P01) was immobilized covalently by amine coupling; His tag (N); thrombin cleavage site (Thromb) (N); purchased Novalix batch PU-P01
T1 sequence (Q14145 321-624): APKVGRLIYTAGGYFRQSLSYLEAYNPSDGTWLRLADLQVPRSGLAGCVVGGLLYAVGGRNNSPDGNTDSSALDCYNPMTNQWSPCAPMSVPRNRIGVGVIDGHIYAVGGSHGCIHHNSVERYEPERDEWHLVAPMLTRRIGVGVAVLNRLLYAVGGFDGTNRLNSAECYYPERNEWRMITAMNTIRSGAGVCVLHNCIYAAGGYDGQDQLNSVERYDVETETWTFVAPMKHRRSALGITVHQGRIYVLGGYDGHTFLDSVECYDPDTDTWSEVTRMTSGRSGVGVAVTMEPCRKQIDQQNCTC
Assay: Surface Plasmon Resonance binding assay to Kelch domain of KEAP1
Settings: Biacore T200, 25° C., immobilized His-Thromb-KEAP1(A321-C624), single cycle kinetics, KD=kd/ka from 1:1 fit; read-out: Keap1 (A321-C624) (h) direct/SPR (KD)
Method: EXAMPLE 85: SURFACE PLASMON RESONANCE
Binding assay to Kelch domain of KEAP1 was performed by Surface Plasmon Resonance (SPR) on a Biacore T200 (GE Healthcare) at 25° C. using CM5 chip. His-Thromb-KEAP1(A321-C624) acquired from Novalix (batch PU-P01) was immobilized covalently by amine coupling using standard wizard protocol, at a concentration of 20 μg/mL in sodium acetate pH 5.5. The ligand was captured until 1250 RU was reached. Amine blank is used as the reference flow cell. Binding of analyte to the ligand was monitored in real time with associations of 180 seconds and a dissociation of 720 seconds. Association (ka) and dissociation (kd) rates were fitted with a simple 1:1 kinetic interaction model using Biacore T200 Evaluation Software (GE Healthcare). The equilibrium constant (KD=kd/ka) was calculated from these fitted parameters. […] The Biacore binding assay was performed with a flowrate of 50 μL/min using a running buffer of 10 mM HEPES (pH 7.4), 150 mM NaCl, 3 mM EDTA, 1 mM TCEP, 0.05% P20,5% DMSO. Double subtraction was used by subtracting both reference flow cell and previous blank cycle (with running buffer). Solvent correction was applied to correct DMSO bulk effect.

Compared with `Cc1ccc2cc1CN1Cc3cc(ccc3OS1(=O)=O)OCCCn1nnc3c(C)c(ccc31)C2CC(=O)O` (racemic) [Example 2, [4,30-Dimethyl-26,26-dioxo-20,25-dioxa-26λ^6-thia-1,14,15,16-tetraazahexacyclo[19.5.3.1^3,70.1^9,130.0^12,160.0^24,28]hentriaconta-3(31),4,6,9(30),10,12,14,21,23,28-decaen-8-yl]acetic acid], `Cc1ccc2cc1CN1Cc3cc(ccc3OS1(=O)=O)OCCCCCn1nnc3c(C)c(ccc31)C2CC(=O)O` (single isomer, unassigned) [Example 1a, [4,32-dimethyl-28,28-dioxo-22,27-dioxa-28λ^6-thia-1,14,15,16-tetraazahexacyclo[21.5.3.1^3,70.1^9,130.0^12,160.0^26,30]tritriaconta-3(33),4,6,9(32),10,12,14,23,25,30-decaen-8-yl]acetic acid] is 190-fold lower in Kd: 35.2 nM for the first, 0.181 nM for the second. The second binds more tightly here.

Source: US12643912B2, “Macrocyclic compounds, a process for their preparation and pharmaceutical compositions containing them” (LES LABORATOIRES SERVIER, priority 2020, dated 2026)
